What was measured:
C2C12 Cells = test: Glucose utilization in cultured C2C12 cells (myotubes); type: cell-based, mouse; conditions: glucose concentration in medium relative to untreated cells; 5 μM peptide, 22 h
Experimental: The effect of the peptides on glucose homeostasis can be assessed using an assay to monitor glucose utilization by cultured cells such as mouse myotubes. Peptide arrays were initially prepared as 5 mM stock in DMSO and diluted to 0.5 mM in H2O; peptides were used at a final concentration of 5 μM (0.1% DMSO). Calculations for peptide concentrations based on approximate molecular weight of 2000 Daltons. C2C12 mouse muscle cell line was purchased from Millipore Sigma (Saint Louis, Mo.). C2C12 cells were seeded in standard medium (DMEM/low glucose (1 g/L)+10% Fetal Bovine Serum+antibiotics) at 7,500 cells/well on 96-well plates and grown to confluence at 37° C. in a humidified atmosphere of 5% CO2/95% air. Three days after plating the medium was removed and with Differentiation Medium (DMEM/low glucose (1 g/L)+2% Horse Serum+antibiotics) added. The cultures were placed at 37° C. in a humidified atmosphere of 5% CO2/95% air for 5 days with partially replacement of medium daily. After 5 days of differentiation, the medium was removed from myotube cultures and replaced with Assay Medium (DMEM/low glucose (1 g/L)+antibiotics). Culture were placed at 37° C. in a humidified atmosphere of 5% CO2/95% air for 5 h. Following the 5 h incubation the medium was removed and fresh Assay Medium containing compounds was added; 5 μM peptide or 1 mM metformin as a potent stimulator of glucose utilization. Cells were incubated for 22 h at 37° C. in a humidified atmosphere of 5% CO2/95% air. Following 22 h incubation, conditioned medium from each well was transferred to a fresh 96-well plate. Glucose concentrations in the medium were determined using a Glucose Assay kit (Abcam; Cambridge, Mass.) according to the manufacturer's instructions; absorbance measured using a Cytation 3 plate reader at 570 nm (BioTek, Winooski, Vt.). Untreated cells were used as reference for basal glucose utilization. Absorbance values were expressed as percent control activity relative to untreated treated cells for 5 μM peptide. The relative standard deviation from plate to plate of untreated control was <10%. […] Data presented are representative values from 2-3 independent experiments with each data point performed in triplicate in each independent experiment.

H4-IIE Cells = test: Glucose production in cultured H4-IIE cells; type: cell-based, rat; conditions: glucose concentration in medium relative to untreated cells; 5 μM peptide, 24 h
Experimental: The effect of the peptides on glucose homeostasis can be assessed using an assay to monitor glucose production by cultured cells such as rat hepatocytes. Peptide arrays were initially prepared as 5 mM stock in DMSO and diluted to 0.5 mM in H2O; peptides were used at a final concentration of 5 μM (0.1% DMSO). Calculations for peptide concentrations based on approximate molecular weight of 2000 Daltons. H4-IIE rat hepatic cell line was purchased from American Type Culture Collection (Manassas, Va.). H4-IIE cells were seeded in standard medium (DMEM/high glucose+10% Fetal Bovine Serum+antibiotics) at 100,000 cells/well on 96-well plates and allowed to adhere overnight at 37° C. in a humidified atmosphere of 5% CO2/95% air. 24 h after seeding, the medium was removed, cells were rinsed with glucose free DMEM, and the medium replaced with Glucose Production Medium (glucose free DMEM+2 mM sodium pyruvate+10 mM sodium lactate+antibiotics). The cultures were placed at 37° C. in a humidified atmosphere of 5% CO2/95% air overnight. The next morning, the medium was removed and fresh Glucose Production Medium containing compounds was added; 5 uM peptide or 0.5-1 nM insulin as a potent inhibitor of glucose production. Cells were incubated for 24 h at 37° C. in a humidified atmosphere of 5% CO2/95% air. Following 24 h incubation, conditioned medium from each well was transferred to a fresh 96-well plate. Glucose concentrations in the medium were determined using a Glucose Assay kit (Abcam; Cambridge, Mass.) according to the manufacturer's instructions; absorbance measured using a Cytation 3 plate reader at 570 nm (BioTek, Winooski, Vt.). Untreated cells were used as reference for maximal glucose production. Absorbance values were expressed as percent control activity relative to untreated treated cells for 5 μM peptide. The relative standard deviation from plate to plate of untreated control was <25%. […] Glucose levels for 0.5-1 nM insulin treatment were <5% of the untreated control value. Data are presented as representative values from 2-3 independent experiments with each data point performed in triplicate in each independent experiment.

3T3-L1 Mouse Adipocytes = test: Free fatty acid levels in cultured 3T3-L1 mouse adipocytes (isoproterenol stimulated); type: cell-based; conditions: free fatty acid in medium; 5 μM peptide, 20-22 h pre-incubation then 3 h with 0.1 nM isoproterenol; isoproterenol alone = 100%
Experimental: The effect of the peptides on fatty acid metabolism can be assessed using an assay to monitor free fatty acid levels produced by cultured cells such as mouse adipocytes. Peptide arrays were initially prepared as 5 mM stock in DMSO and diluted to 0.5 mM in H2O; peptides were used at a final concentration of 5 μM (0.1% DMSO). Calculations for peptide concentrations based on approximate molecular weight of 2000 Daltons. […] Mouse 3T3-L1 cells purchased from ZenBio (Research Triangle Park, NC) were seeded at 3,000 cells per well in 96-well plates in Pre-adipocyte Medium (Zen-Bio) and grown to confluence at 37° C. in a humidified atmosphere of 5% CO2/95% air. Two days after confluence, cells were placed in Adipocyte Differentiation Medium (Zen-Bio) and cultured for three additional days at 37° C. in a humidified atmosphere of 5% CO2/95% air. The culture medium was then replaced with Adipocyte Maintenance Medium (Zen-Bio) and the cells maintained for an additional 9 days at 37° C. in a humidified atmosphere of 5% CO2/95% air with partial medium replacement every other day. Following 12 days of differentiation, medium was replaced Adipocyte Maintenance Medium without insulin and the cultures placed at 37° C. in a humidified atmosphere of 5% CO2/95% air. On day 13 of differentiation, test peptides were added directly to each well (without replacing the medium) at a final concentration of 5 μM in 0.1% DMSO and incubated for 20-22 hours at 37° C. in a humidified atmosphere of 5% CO2/95% air. […] Cells were incubated for 3 hours in Assay Buffer (Zen-Bio) at 37° C. in a humidified atmosphere of 5% CO2/95% air. Following 3 h incubation, conditioned medium from each well was transferred to a fresh 96-well plate. Free fatty acid concentrations in the medium were determined using a Free Fatty Acid Assay kit (Zen-Bio) according to the manufacturer's instructions; absorbance was measured using a Cytation 3 plate reader at 540 nm (BioTek, Winooski, Vt.). Treatment with 0.1 nM isoproterenol alone was used as the free fatty acid level stimulatory control. Absorbance values were expressed as percent control activity relative to 0.1 nM isoproterenol alone treated cells, 100%. The relative standard deviation of the isoproterenol control was <10%. Insulin at 0.25 nM was used as a potent control for decreasing free fatty acid levels. […] Data presented are representative values from 2 independent experiments with each data point performed in triplicate in each independent experiment.

| Substance | Percent of Control Activity (C2C12 Cells) [%] | Percent of Control Activity (H4-IIE Cells) [%] | Percent of Isoproterenol Control Activity (3T3-L1 Mouse Adipocytes) [%] |
| --- | --- | --- | --- |
| 28 (MGCSGSSVSQCYRVHTPQTKMPNAW) [compound 28] | 100 | 121 | 105 |
| 29 (MGDCAVCDA) [compound 29] | 109 | 106 | 90 |
| 30 (MGEGLEENPTNPITKPTLN) [compound 30] | 102 | 102 | 98 |
| 31 (MGEVGLLWLGRI) [compound 31] | 107 | 101 | 78 |
| 32 (MGGEWGMGVWTWGCFLVWM) [compound 32] | 108 | 100 | 94 |
| 33 (MGGGVLLGLQ) [compound 33] | 111 | 100 | 103 |
| 35 (MGGRWGLGWWRAG) [compound 35] | 108 | 100 | 98 |
| 36 (MGLAAVCVCWVGWAGVVLM) [compound 36] | 106 | 101 | 103 |
| 37 (MGLLEWLLCWHLLGRIINWWA) [compound 37] | 109 | 103 | 106 |
| 38 (MGLWLVCWVL) [compound 38] | 108 | 111 | 103 |
| 39 (MGNIIRAWCGEGCL) [compound 39] | 107 | 114 | 99 |
| 40 (MGSPPPAGSKKVVL) [compound 40] | 109 | 109 | 95 |
| 41 (MGSSRINPDPSPS) [compound 41] | 109 | 108 | 99 |
| 42 (MGSSRLAVLCPPLHGQVNFTG) [compound 42] | 107 | 112 | 106 |
| 43 (MGVGMEWGLLLRRGR) [compound 43] | 101 | 112 | 103 |
| 44 (MGVKFFTLST) [compound 44] | 103 | 103 | 112 |
| 45 (MHGELPWVVN) [compound 45] | 108 | 107 | 98 |

| Substance | Percent of Control Activity (C2C12 Cells) [%] | Percent of Control Activity (H4-IIE Cells) [%] | Percent of Isoproterenol Control Activity (3T3-L1 Mouse Adipocytes) [%] |
| --- | --- | --- | --- |
| 46 (MHHMKHPIIC) [compound 46] | 104 | 106 | 98 |
| 47 (MHKHYYNKHPHHYNLP) [compound 47] | 103 | 107 | 96 |
| 48 (MHKRLSPIYYSHRYLPDKRL) [compound 48] | 104 | 101 | 91 |
| 49 (MHLVFSSGGYARDSIA) [compound 49] | 108 | 104 | 87 |
| 50 (MHQSCKPEMKTFFQGQI) [compound 50] | 99 | 106 | 100 |
| 51 (MIEMGASFCHV) [compound 51] | 103 | 111 | 89 |
| 52 (MITVPAHKGMAMA) [compound 52] | 104 | 107 | 92 |
| 53 (MIYVSSDVGDWWKGGWGVWWVVHG) [compound 53] | 101 | 115 | 91 |
| 54 (MKFEIWLGWC) [compound 54] | 103 | 113 | 104 |
| 55 (MKHRQVLWVLSCGS) [compound 55] | 103 | 118 | 98 |
| 56 (MKNHRCISTT) [compound 56] | 104 | 112 | 89 |
| 57 (MKPFTVHSTLQSNPFSSPWMTPL) [compound 57] | 107 | 112 | 102 |
| 58 (MKPMSPMRLY) [compound 58] | 101 | 112 | 105 |
| 59 (MKSPSTLTTQSKTPSAYFSSFSP) [compound 59] | 108 | 108 | 100 |
| 60 (MLEIVMGMETYHMSNA) [compound 60] | 101 | 105 | 94 |
| 61 (MLFMRGNAMSGAPII) [compound 61] | 104 | 107 | 86 |

Source: patent US20220332774A1, “THERAPEUTIC MITOCHONDRIAL PEPTIDES” (priority 2019, published 2022)
